IC50 data for 14 molecules are collected here from ChEMBL document CHEMBL2311280, “Protein tyrosine phosphatase 1B inhibitory effect by dammarane-type triterpenes from hydrolyzate of total Gynostemma pentaphyllum saponins” (Bioorg Med Chem Lett, 2013).

In general, IC50 refers to the concentration at which inhibition is half-maximal. Read a high IC50 as lower potency.

Bounds are passed on as bounds.

In the assay the target is T1, Tyrosine-protein phosphatase non-receptor type 1 (Homo sapiens, UniProt P18031).
T1 sequence (P18031 whole entry): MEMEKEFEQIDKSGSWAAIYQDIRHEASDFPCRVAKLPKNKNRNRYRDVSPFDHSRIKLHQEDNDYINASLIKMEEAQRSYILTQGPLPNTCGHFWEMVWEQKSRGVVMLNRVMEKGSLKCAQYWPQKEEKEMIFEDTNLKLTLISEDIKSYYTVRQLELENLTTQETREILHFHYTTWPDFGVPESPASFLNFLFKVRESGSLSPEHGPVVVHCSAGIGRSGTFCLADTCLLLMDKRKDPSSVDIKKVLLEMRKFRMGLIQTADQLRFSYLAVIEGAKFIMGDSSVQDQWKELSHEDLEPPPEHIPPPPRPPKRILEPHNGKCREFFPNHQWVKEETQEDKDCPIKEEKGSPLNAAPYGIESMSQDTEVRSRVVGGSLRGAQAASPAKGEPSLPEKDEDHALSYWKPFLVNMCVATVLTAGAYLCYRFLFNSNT
The assay is described as follows: Inhibition of PTP1B (unknown origin).
Molecule `CC(C)=CCC[C@@](O)(CO)[C@H]1CC[C@]2(C)[C@@H]1CC[C@@H]1[C@@]3(C)CC[C@H](O)C(C)(C)[C@@H]3CC[C@]12C` came in with an IC50 of 15.2 µM. For `C/C(=C/CCC(C)(C)O)[C@H]1CC[C@]2(C)[C@@H]1[C@H](O)C[C@@H]1[C@@]3(C)CC[C@H](O)C(C)(C)[C@@H]3CC[C@]12C` the value was greater than 50 µM; for `C=C(C)CCC[C@](C)(O)[C@H]1CC[C@]2(C)[C@@H]1[C@H](O)C[C@@H]1[C@@]3(C)CC[C@H](O)C(C)(C)[C@@H]3CC[C@]12C`, greater than 50 µM. The molecule `C=C(C)[C@@H](O)CC[C@](C)(O)[C@H]1CC[C@]2(C)[C@@H]1[C@H](O)C[C@@H]1[C@@]3(C)CC[C@H](O)C(C)(C)[C@@H]3CC[C@]12C` yielded an IC50 greater than 50 µM.

Regarding `CC(C)=C[C@@H]1C[C@](O)([C@H]2CC[C@]3(C)[C@@H]2CC[C@@H]2[C@@]4(C)CC[C@H](O)C(C)(C)[C@@H]4CC[C@]23C)C(=O)O1`, the IC50 is 27.8 µM. In the case of `CC(C)=C[C@H]1C[C@@](O)([C@H]2CC[C@]3(C)[C@@H]2CC[C@@H]2[C@@]4(C)CC[C@H](O)C(C)(C)[C@@H]4CC[C@]23C)C(=O)O1`, half-maximal inhibition (IC50) was put at 8.4 µM. Molecule `CC1(C)[C@@H](O)CC[C@]2(C)[C@H]3CC[C@@H]4[C@@H](C(=O)O)CC[C@@]4(C)[C@]3(C)CC[C@@H]12` returned an IC50 of 13.1 µM. In turn, `CC(C)=CCC[C@](C)(O)[C@H]1CC[C@]2(C)[C@@H]1[C@H](O)C[C@@H]1[C@@]3(C)CC[C@H](O)C(C)(C)[C@@H]3CC[C@]12C` gave an IC50 of 23.6 µM.

With `CC(C)=C1CC([C@H]2CC[C@]3(C)[C@@H]2CC[C@@H]2C4=C(CC[C@]23C)C(C)(C)[C@@H]2CC[C@H]4O2)=CC1=O` [GYPENSAPOGENIN B], half-maximal inhibition (IC50) required 24.5 µM.

For `CC(C)=C1CC=C([C@H]2CC[C@]3(C)[C@@H]2CC[C@@H]2[C@@]4(C)CC[C@H](O)C(C)(C)[C@@H]4CC[C@]23C)C1=O` [GYPENSAPOGENIN C], the IC50 was greater than 50 µM. `CC(C)=C[C@H]1C=C([C@H]2CC[C@]3(C)[C@@H]2CC[C@@H]2[C@@]4(C)CC[C@H](O)C(C)(C)[C@@H]4CC[C@]23C)C(=O)O1` [GYPENSAPOGENIN D] came in with an IC50 greater than 50 µM.

`CC(C)(O)C[C@H]1C=C([C@H]2CC[C@]3(C)[C@@H]2CC[C@@H]2[C@@]4(C)CC[C@H](O)C(C)(C)[C@@H]4CC[C@]23C)C(=O)O1` [GYPENSAPOGENIN E] yielded an IC50 of 23 µM. In the case of `CC(C)(O)C[C@@H]1C=C([C@H]2CC[C@]3(C)[C@@H]2CC[C@@H]2[C@@]4(C)CC[C@H](O)C(C)(C)[C@@H]4CC[C@]23C)C(=O)O1` [GYPENSAPOGENIN F], the IC50 was found to be 49 µM. As for `CC(=O)O[C@H]1CC[C@]2(C)[C@H]3CC[C@@H]4[C@@H](C5=C[C@H](CC(C)(C)O)OC5=O)CC[C@@]4(C)[C@]3(C)CC[C@H]2C1(C)C` [GYPENSAPOGENIN G], the IC50 is 24.5 µM.
